Where two headings read alike, the source gives them in different places.
Experiments:
[1] = target: T1, sigma 2 receptor (Rattus norvegicus (Rat), UniProt Q5U3Y7); conditions: for Ki: read-out: σ2 Ki; for Ki(σ1)/Ki(σ2): selectivity σ2 over σ1
Procedure: (§1) Sigma-2 receptor ligands and their binding assays. […] The compounds were dissolved in 100% DMSO prior to the receptor binding assays, which were performed by the Psychoactive Drug Screening Program (PDSP) at Chapel Hill, N.C. […] Briefly, Sig2Rs were sourced from rat liver homogenates (PC12 cells). The Sig2R ligand binding affinity was determined through competition binding assays using the radioligand [^3H]-ditolylguanidine in the presence of (+)-pentazocine to block Sig1R binding sites. The radioactivity in the presence of the test compound is calculated with the following equation and expressed as a percent inhibition: % inhibition=(sample CPM non-specific CPM)/(Total CPM non-specific CPM)×100 where
(§2) CPM stands for counts per minute. To determine secondary binding data, CPM/well are pooled and fitted to a three parameter logistic function for competition binding in Prism v 5.0 to determine IC50 values, which are converted to K, according to the Cheng-Prusoff equation.
(§3) Receptor binding assays were performed by the Psychoactive Drug Screening Program (PDSP) at Chapel Hill, N.C. […] Briefly, Sig1Rs and Sig2Rs were sourced from homogenates of Guinea pig brains and rat livers, respectively. Assessment of Sig1R binding affinity was determined via competition binding assays with the radioligand [3H]-(+)-pentazocine. Sig2R binding affinity was determined through competition binding assays using the radioligand [3H]-ditolylguanidine in the presence of (+)-pentazocine to block Sig1R binding sites. […] The radioactivity in the presence of the test compound is calculated with the following equation and expressed as a percent inhibition: % inhibition=(sample CPM non-specific CPM)/Total CPM−non-specific CPM)×100. The normalization process is carried out in Prism or Excel. To determine secondary binding results, CPM/well are pooled and fitted to a three parameter logistic function for competition binding in Prism v 5.0 to determine IC50 values, which are converted to Ki according to the Cheng-Prusoff equation.

[2] = target: T1, sigma 2 receptor; assay: biochemical; conditions: for inhibition at 10 µM: read-out: σ2 inhibition of radioligand binding
Procedure: as §1, §2, §3

[3] = target: T2, sigma 1 receptor (Cavia porcellus (Guinea pig), UniProt Q60492); assay: biochemical; conditions: for inhibition at 10 µM: read-out: σ1 inhibition of radioligand binding
Procedure: as §3

[4] = target: T2, sigma 1 receptor; conditions: for Ki: read-out: σ1 Ki
Procedure: as §3

[5] = test system: Wild-type mice (C57BL/6) subjected to Blast (brain injury); assay: Traumatic Brain Injury, Barnes Maze after blast; format: in vivo; conditions: seven days of daily treatment beginning the day after injury, compared to Veh
Excerpt: FIG. 9 Traumatic Brain Injury treatment; Barnes Maze (spatial and long term memory) after blast; Wild-type mice (C57BL/6) were subjected to either a Blast (brain injury) or Sham blast (no brain injury).

[6] = test system: Wild-type mice (C57BL/6) subjected to Blast (brain injury); assay: Traumatic Brain Injury, Morris Water Maze after blast; format: in vivo; conditions: seven days of daily treatment beginning the day after injury, compared to Veh
Excerpt: FIG. 10 Traumatic Brain Injury treatment; Morris Water Maze (spatial and long term memory) after blast; Wild-type mice (C57BL/6) were subjected to either a Blast (brain injury) or Sham blast (no brain injury).

[7] = test system: proinflammatory cytokines (IL-1β, TNFα, CD14); assay: Brain levels of proinflammatory cytokines in transgenic mice; format: in vivo; conditions: Thy1-APPLond/Swe+ mice, 60 days of treatment (30 mg/kg)
[8] = test system: neuroblastoma cells; assay: MTT Assay in Neuroblastoma Cells
Procedure: FIG. 15 MTT Assay in Neuroblastoma Cells; Sigma 2 receptor binding ligands were evaluated for effects in neuroblastoma cells.
FIG. 16 MTT Assay in Neuroblastoma Cells; Sigma 2 receptor binding ligands were evaluated for effects in neuroblastoma cells.

[9] = test system: Murine hippocampal neuron slices; assay: Synaptic long term depression in hippocampal neuron slices
Excerpt: FIG. 13 Effect of SAS-0132 on Synaptic Long Term Depression (inhibition); effect of SAS-0132 on dihydroxyphenylglycine (DHPG) mediated increase in long term depression (LTD).

[10] = test system: neuroblastoma cells; assay: Calcium ion levels in neuroblastoma cells; format: cell-based
[11] = target: σ2R (Homo sapiens (Human), UniProt Q5BJF2); conditions: cited from earlier work
σ2R, sequence (Q5BJF2 whole entry): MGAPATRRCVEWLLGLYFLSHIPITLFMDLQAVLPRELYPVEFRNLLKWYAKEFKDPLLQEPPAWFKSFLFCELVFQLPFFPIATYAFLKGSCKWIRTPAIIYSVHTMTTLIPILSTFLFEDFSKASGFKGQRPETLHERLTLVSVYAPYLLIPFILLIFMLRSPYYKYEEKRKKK

T1 sequence (Q5U3Y7 whole entry): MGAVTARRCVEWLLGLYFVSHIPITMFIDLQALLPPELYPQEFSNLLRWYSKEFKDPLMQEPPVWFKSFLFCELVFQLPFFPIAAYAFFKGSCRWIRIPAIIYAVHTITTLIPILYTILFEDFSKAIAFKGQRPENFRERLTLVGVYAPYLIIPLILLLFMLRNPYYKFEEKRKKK
T2 sequence (Q60492 whole entry): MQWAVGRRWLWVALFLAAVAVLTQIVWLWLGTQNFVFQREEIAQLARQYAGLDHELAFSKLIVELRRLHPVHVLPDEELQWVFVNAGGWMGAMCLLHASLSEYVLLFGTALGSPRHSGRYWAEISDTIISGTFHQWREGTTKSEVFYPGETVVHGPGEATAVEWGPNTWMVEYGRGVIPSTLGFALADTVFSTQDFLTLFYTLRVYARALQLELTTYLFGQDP

Compound	Ki [1] [nM]	σ1 pKi ± SEM [4]	Ki [4] [nM]	σ2 pKi ± SEM [1]	Ki(σ1)/Ki(σ2) [1]	also measured
CCCOC(=O)CCN1CCN(c2ccc3c(c2)[C@H]2C[C@H]3CCN2C(=O)OCc2ccccc2)CC1	58					
CN1CCN(c2ccc3c(c2)C2CC3CCN2C(=O)C2CCCCC2)CC1 (racemic) [(±)-TH-1-106, (±)-Cyclohexyl(8-(4-methylpiperazin-1-yl)-1,3,4,5-tetrahydro-2H-1,5-methanobenzo[c]azepin-2-yl)methanone]						Ki [2]: 144 nM; Ki ([3]; σ1 Ki (nM)): 1420 nM
O=C(OCc1ccccc1)N1CC[C@@H]2C[C@@H]1c1cc(Cl)ccc12 [Compound 12]						inhibition at 10 µM [2]: < 50%; inhibition at 10 µM [3]: < 50%
O=C(OCc1ccccc1)N1CC[C@@H]2C[C@@H]1c1cc(N3CCOCC3)ccc12 [Compound 16]						inhibition at 10 µM [2]: < 50%; inhibition at 10 µM [3]: < 50%; sigma receptor binding (in words) [1]: did not bind
c1ccc(CN2CC[C@@H]3C[C@@H]2c2cc(N4CCCCC4)ccc23)cc1 [Compound 19]	318	5.61 ± 0.06	2430	6.5 ± 0.1	8	preference / selectivity for σ2R relative to σ1R [1]: about 8 fold
C=CCCN1CCN(c2ccc3c(c2)[C@H]2C[C@H]3CCN2C(=O)OCc2ccccc2)CC1 [Compound 29]	16	6.76 ± 0.05	172	7.79 ± 0.05	11	
CC(C)=CCN1CCN(c2ccc3c(c2)[C@H]2C[C@H]3CCN2C(=O)OCc2ccccc2)CC1 [Compound 30]	23	7.21 ± 0.05	62	7.64 ± 0.07	3	
CN1CCN(c2ccc3c(c2)[C@H]2C[C@H]3CCN2)CC1 [Compound 33]						inhibition at 10 µM [2]: < 50%
CN1CCN(c2ccc3c(c2)[C@H]2C[C@H]3CCN2S(=O)(=O)c2ccccc2)CC1 [Compound 35]	764			6.12 ± 0.07		inhibition at 10 µM [3]: < 50%
CN1CCN(c2ccc3c(c2)[C@H]2C[C@H]3CCN2C(=O)CCc2ccccc2)CC1 [Compound 36]	357	6.53 ± 0.08	294	6.45 ± 0.06	1	
C=CCOC(=O)N1CC[C@@H]2C[C@@H]1c1cc(N3CCN(C)CC3)ccc12 [Compound 37]	442	5.68 ± 0.07	2100	6.37 ± 0.07	5	
Clc1cccc(CN2CC[C@@H]3C[C@@H]2c2cc(N4CCCCC4)ccc23)c1 [Compound 38]	746		3520		5	Ki [2]: 794 nM; Ki ([3]; σ1 pKi ± SEM): 3160 nM
Clc1cc(Cl)cc(CN2CC[C@@H]3C[C@@H]2c2cc(N4CCOCC4)ccc23)c1 [Compound 39]	92	5.53 ± 0.09	2980		32	Ki [2]: 100 nM; preference / selectivity for σ2R relative to σ1R [1]: 32 fold
Fc1ccccc1CN1CC[C@@H]2C[C@@H]1c1cc(N3CCOCC3)ccc12 [Compound 40]	1260	5.34 ± 0.09	4540	5.9 ± 0.1	4	preference / selectivity for σ2R relative to σ1R [1]: 4 fold
CN1CC[C@@H]2C[C@@H]1c1cc(-c3ccc(C(F)(F)F)cc3)ccc12 [Compound 41]	43	6.81 ± 0.09	156	7.36 ± 0.08	4	
FC(F)(F)c1ccc(-c2ccc3c(c2)[C@H]2C[C@H]3CCN2CCc2ccccc2)cc1 [Compound 42]	166		1060	6.8 ± 0.1	6	Ki ([3]; σ1 pKi ± SEM): 1000 nM
Cc1cccc(-c2ccc3c(c2)[C@H]2C[C@H]3CCN2C)c1 [Compound 43]	133	6.41 ± 0.08	391	6.88 ± 0.07	3	
Cc1cccc(-c2ccc3c(c2)[C@H]2C[C@H]3CCN2Cc2ccc3c(c2)OCO3)c1 [Compound 44]					6	Ki [2]: 828 nM; Ki ([3]; σ1 Ki (nM)): 4610 nM; Ki ([3]; σ1 pKi ± SEM): 4570 nM
CCCN1CCN(c2ccc3c(c2)C2CC3CCN2C(=O)OCc2ccccc2)CC1 (centres unmarked) [DKR-1516]						spatial- and long term memory, Barnes Maze [5]: performed significantly better; spatial- and long term memory, Morris Water Maze [6]: performed significantly better
CN1CCN(c2ccc3c(c2)[C@H]2C[C@@H]3CCN2C(=O)OCc2ccccc2)CC1 [SAS-0132]						brain levels of CD14 [7]: not statistically significant; brain levels of IL-1β [7]: significant reduction; brain levels of TNFα [7]: not statistically significant; concentration at which cytotoxicity begins [8]: around 30 microM; toxicity in MTT assay (in words) [8]: not toxic at low doses; spatial- and long term memory, Barnes Maze [5]: performed significantly better; DHPG-mediated increase in LTD [9]: blocked; DKR-1051-induced calcium response [10]: concentration-dependent attenuation; intracellular Ca2+ concentration ([10]; concentrations up to 30 μM): does not induce significant increases
OCCN1CCN(CCCN2c3ccccc3C=Cc3ccccc32)CC1 [opipramol]						affinity for σ2R [11]: appreciable affinity
